The values below come from patent US7268152B2, “Glucocorticoid mimetics, methods of making them, pharmaceutical compositions, and uses thereof” (Boehringer Ingelheim Pharmaceuticals, Inc., priority 2002, dated 2007).

What is called IC50 is the concentration that inhibits the measured activity by half.

This experiment deals with T1, human glucocorticoid receptor (GR) complex (Homo sapiens, UniProt P04150).
T1 construct: made in house; host or cells: insect expression system (baculovirus lysate)
T1 sequence (P04150 1-777): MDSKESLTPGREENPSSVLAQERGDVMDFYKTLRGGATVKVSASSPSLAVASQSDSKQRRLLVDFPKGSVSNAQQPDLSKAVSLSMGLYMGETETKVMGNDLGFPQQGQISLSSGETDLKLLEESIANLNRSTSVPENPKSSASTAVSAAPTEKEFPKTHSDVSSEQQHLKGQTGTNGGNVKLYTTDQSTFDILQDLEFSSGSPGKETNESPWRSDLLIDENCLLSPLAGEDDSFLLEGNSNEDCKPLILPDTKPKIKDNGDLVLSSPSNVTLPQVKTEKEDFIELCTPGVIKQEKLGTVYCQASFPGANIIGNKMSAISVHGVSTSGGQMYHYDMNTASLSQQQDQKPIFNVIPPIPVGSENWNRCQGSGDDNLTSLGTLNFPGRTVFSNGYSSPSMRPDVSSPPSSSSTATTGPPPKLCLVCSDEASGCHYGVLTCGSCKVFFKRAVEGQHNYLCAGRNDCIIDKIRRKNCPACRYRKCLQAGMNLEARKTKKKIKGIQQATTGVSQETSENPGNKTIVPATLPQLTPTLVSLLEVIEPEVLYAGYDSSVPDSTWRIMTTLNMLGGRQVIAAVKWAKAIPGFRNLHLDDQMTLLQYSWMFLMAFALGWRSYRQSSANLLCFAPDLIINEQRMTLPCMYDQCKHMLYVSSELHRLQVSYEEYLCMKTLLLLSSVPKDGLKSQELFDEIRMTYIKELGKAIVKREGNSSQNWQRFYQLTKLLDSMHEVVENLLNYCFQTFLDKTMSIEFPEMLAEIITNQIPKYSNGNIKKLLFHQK
Put plainly: Glucocorticoid receptor competitive binding assay (fluorescence polarization). The note with it: competition with TAMRA-labeled dexamethasone. The method, then: Compounds of the invention were evaluated for binding to the steroid receptor by a fluorescence polarization competitive binding assay. Detailed descriptions for preparation of recombinant glucocorticoid receptor (GR) complex used in the assay is described in U.S. provisional application No. 60/291,877, filed May 18, 2001, and incorporated herein by reference in its entirety. Preparation of the tetramethyl rhodamine (TAMRA)-labeled dexamethasone probe was accomplished using a standard literature procedure (M. Pons et al., J. Steroid Biochem., 1985, 22, pp. 267-273).
A. Glucocorticoid Receptor Competitive Binding Assay
Step 1. Characterization of the Fluorescent Probe
The wavelengths for maximum excitation and emission of the fluorescent probe should first be measured. An example of such a probe is rhodamine (TAMRA)-labeled dexamethasone.
The affinity of the probe for the steroid receptor was then determined in a titration experiment. The fluorescence polarization value of the probe in assay buffer was measured on an SLM-8100 fluorometer using the excitation and emission maximum values described above. Aliquots of expression vector lysate were added and fluorescence polarization was measured after each addition until no further change in polarization value was observed. Non-linear least squares regression analysis was used to calculate the dissociation constant of the probe from the polarization values obtained for lysate binding to the probe.
Step 2. Screeningfor Inhibitors of Probe Binding
This assay uses fluorescence polarization (FP) to quantitate the ability of test compounds to compete with tetramethyl rhodamine (TAMRA)-labeled dexamethasone for binding to a human glucocorticoid receptor (GR) complex prepared from an insect expression system. The assay buffer was: 10 mM TES, 50 mM KCl, 20 mM Na2MoO4.2H2O, 1.5 mM EDTA, 0.04% w/v CHAPS, 10% v/v glycerol, 1 mM dithiothreitol, pH 7.4. Test compounds were dissolved to 1 mM in neat DMSO and then further diluted to 10×assay concentration in assay buffer supplemented with 10% v/v DMSO. Test compounds were serially diluted at 10×assay concentrations in 10% DMSO-containing buffer in 96-well polypropylene plates. Binding reaction mixtures were prepared in 96-well black Dynex microtiter plates by sequential addition of the following assay components to each well: […] of 10×test compound solution, 85 μL of GR-containing baculovirus lysate diluted 1:170 in assay buffer, and 50 μL of 15 nM TAMRA-labeled dexamethasone. Positive controls were reaction mixtures containing no test compound; negative controls (blanks) were reaction mixtures containing 0.7 μM to 2 μM dexamethasone. The binding reactions were incubated for 1 hour at room temperature and then read for fluorescence polarization in the LJL Analyst set to 550 nm excitation and 580 nm emission, with the Rhodamine 561 dichroic mirror installed. IC50 values were determined by iterative non-linear curve fitting of the FP signal data to a 4-parameter logistic equation.
For orientation: In fluorescence polarisation assays a small probe gives low polarisation when free and higher when bound to something large.
Take `Cc1ccc(F)cc1C(C)(C)CC(O)(Cc1cc(C(F)(F)F)cc(Cl)c1F)C(F)(F)F` (stereo not shown) [2-(3-Chloro-2-fluoro-5-trifluoromethylbenzyl)-1,1,1-trifluoro-4-(5-fluoro-2-methylphenyl)-4-methylpentan-2-ol]: the half-inhibitory concentration (IC50) is no more than 100 nM.
In turn, `CCOc1ccc(F)cc1C(C)(C)CC(O)(Cc1cc(C(F)(F)F)cc(Cl)c1F)C(F)(F)F` (stereo not shown) [2-(3-Chloro-2-fluoro-5-trifluoromethylbenzyl)-4-(2-ethoxy-5-fluorophenyl)-1,1,1-trifluoro-4-methylpentan-2-ol] showed an IC50 of no more than 100 nM.
For `COc1ccc(F)cc1C(C)(C)CC(O)(Cc1ccccc1Br)C(F)(F)F` (stereo not shown) [2-(2-Bromobenzyl)-1,1,1-trifluoro-4-(5-fluoro-2-methoxyphenyl)-4-methylpentan-2-ol] the value was no more than 100 nM; for `COc1ccc(F)cc1C(C)(C)CC(O)(Cc1ccc(C)c2ccccc12)C(F)(F)F` (stereo not shown) [1,1,1-Trifluoro-4-(5-fluoro-2-methoxyphenyl)-4-methyl-2-(4-methylnaphthalen-1-ylmethyl)pentan-2-ol], no more than 100 nM; for `CC(C)(CC(O)(Cc1cc(C(F)(F)F)cc(Cl)c1F)C(F)(F)F)c1cccc2c1OCC2` (stereo not shown) [2-(3-Chloro-2-fluoro-5-trifluoromethylbenzyl)-4-(2,3-dihydrobenzofuran-7-yl)-1,1,1-trifluoro-4-methylpentan-2-ol], no more than 100 nM.
Consider `COc1ccc(F)cc1C(C)(C)CC(O)(Cc1ccc(C#N)cc1F)C(F)(F)F` (stereo not shown) [3-Fluoro-4-[4-(5-fluoro-2-methoxyphenyl)-2-hydroxy-4-methyl-2-trifluoromethylpentyl]benzonitrile], for which the IC50 was no more than 100 nM.
With `COc1ccc(F)cc1C(C)(C)CC(O)(Cc1ccc(Cl)c(C(F)(F)F)c1)C(F)(F)F` (stereo not shown) [2-(4-Chloro-3-trifluoromethylbenzyl)-1,1,1-trifluoro-4-(5-fluoro-2-methoxyphenyl)-4-methylpentan-2-ol], the IC50 was no more than 100 nM.
On to `Cc1cc(C)cc(CC(O)(CC(C)(C)c2cc(F)ccc2O)C(F)(F)F)c1` (stereo not shown) [2-[3-(3,5-Dimethylbenzyl)-4,4,4-trifluoro-3-hydroxy-1,1-dimethylbutyl]4-fluorophenol], for which the IC50 was no more than 100 nM.
`COc1ccc(C(C)(C)CC(O)(Cc2ccc(C#N)cc2Cl)C(F)(F)F)cc1` (stereo not shown) [3-Chloro-4-[2-hydroxy-4-(4-methoxyphenyl)-4-methyl-2-trifluoromethylpentyl]benzonitrile]: the IC50 is no more than 100 nM.
To `Cc1ccc(F)cc1C(C)(C)CC(O)(Cc1ccc(Cl)c(Cl)c1)C(F)(F)F` (stereo not shown) [2-(3,4-Dichlorobenzyl)-1,1,1-trifluoro-4-(5-fluoro-2-methylphenyl)-4-methylpentan-2-ol] belongs no more than 100 nM.
For the molecule `CC(C)(CC(O)(Cc1cc(C(F)(F)F)cc(Cl)c1F)C(F)(F)F)c1cc(C#N)cc2c1OCC2` (stereo not shown) [7-[3-(3-Chloro-2-fluoro-5-trifluoromethylbenzyl)-4,4,4-trifluoro-3-hydroxy-1,1-dimethylbutyl]-2,3-dihydrobenzofuran-5-carbonitrile], the IC50 was no more than 100 nM.
To `COc1ccc(F)cc1C(C)(C)CC(O)(C(=O)Cc1cc(C)cc(C)c1)C(F)(F)F` (stereo not shown) [1-(3,5-Dimethylphenyl)-5-(5-fluoro-2-methoxyphenyl)-3-hydroxy-5-methyl-3-trifluoromethylhexan-2-one] belongs no more than 100 nM; to `COc1ccc(F)cc1C(C)(C)CC(O)(Cc1ccc(Cl)cc1Cl)C(F)(F)F` (stereo not shown) [2-(2,4-Dichlorobenzyl)-1,1,1-trifluoro-4-(5-fluoro-2-methoxyphenyl)-4-methylpentan-2-ol], no more than 100 nM.
Molecule `CC(C)(CC(O)(Cc1cc(F)cc(F)c1)C(F)(F)F)c1cc(F)ccc1O` (stereo not shown) [2-[3-(3,5-Difluorobenzyl)-4,4,4-trifluoro-3-hydroxy-1,1-dimethylbutyl]-4-fluorophenol] came in with an IC50 of no more than 100 nM.
`CC(C)(CC(O)(Cc1ccccc1)C(F)(F)F)c1ccccc1` (stereo not shown) [2-Benzyl-1,1,1-trifluoro-4-methyl-4-phenylpentan-2-ol] gave an IC50 of no more than 100 nM.
With `Cc1ccccc1CC(O)(CC(C)(C)c1cc(F)ccc1O)C(F)(F)F` (stereo not shown) [4-Fluoro-2-[4,4,4-trifluoro-3-hydroxy-1,1-dimethyl-3-(2-methylbenzyl)butyl]phenol], the IC50 is no more than 100 nM.
To `CC(C)(CC(O)(Cc1ccc(Cl)c(Cl)c1)C(F)(F)F)c1cc(F)ccc1O` (stereo not shown) [2-[3-(3,4-Dichlorobenzyl)-4,4,4-trifluoro-3-hydroxy-1,1-dimethylbutyl]-4-fluorophenol] belongs no more than 100 nM.
`COc1ccc(F)cc1C(C)(C)CC(O)(Cc1ccc(C(F)(F)F)c(F)c1)C(F)(F)F` (stereo not shown) showed an IC50 of no more than 100 nM.
On to `COc1ccc(F)cc1C(C)(C)CC(O)(Cc1cccc(C#N)c1)C(F)(F)F` (stereo not shown) [3-[4-(5-Fluoro-2-methoxyphenyl)-2-hydroxy-4-methyl-2-trifluoromethylpentyl]benzonitrile], for which the IC50 is no more than 100 nM.
To `CC(C)(CC(O)(Cc1ccc(Cl)c(Cl)c1)C(F)(F)F)c1ccccc1` (stereo not shown) [2-(3,4-Dichlorobenzyl)-1,1,1-trifluoro-4-methyl-4-phenylpentan-2-ol] belongs no more than 100 nM; to `COc1ccc(F)cc1C(C)(C)CC(O)(Cc1ccccc1Cl)C(F)(F)F` (stereo not shown) [2-(2-Chlorobenzyl)-1,1,1-trifluoro-4-(5-fluoro-2-methoxyphenyl)-4-methylpentan-2-ol], no more than 100 nM; to `COc1ccc(F)cc1C(C)(C)CC(O)(Cc1c(C)ccc2ccccc12)C(F)(F)F` (stereo not shown) [1,1,1-Trifluoro-4-(5-fluoro-2-methoxyphenyl)-4-methyl-2-(2-methylnaphthalen-1-ylmethyl)pentan-2-ol], no more than 100 nM.
In turn, `COc1ccc(F)cc1C(C)(C)CC(O)(Cc1cccc(Cl)c1Cl)C(F)(F)F` (stereo not shown) [2-(2,3-Dichlorobenzyl)-1,1,1-trifluoro-4-(5-fluoro-2-methoxyphenyl)-4-methylpentan-2-ol] showed an IC50 of no more than 100 nM.
As to `COc1ccc(F)cc1C(C)(C)CC(O)(Cc1cc(C(F)(F)F)cc(C(F)(F)F)c1)C(F)(F)F` (stereo not shown) [2-(3,5-Bis-trifluoromethylbenzyl)-1,1,1-trifluoro-4-(5-fluoro-2-methoxyphenyl)-4-methylpentan-2-ol], the IC50 is no more than 100 nM.
For `COc1ccc(F)cc1C(C)(C)CC(O)(Cc1cccc(Br)c1)C(F)(F)F` (stereo not shown) [2-(3-Bromobenzyl)-1,1,1-trifluoro-4-(5-fluoro-2-methoxyphenyl)-4-methylpentan-2-ol] the value was no more than 100 nM; for `CC(C)(CC(O)(Cc1cc(C(F)(F)F)cc(Cl)c1F)C(F)(F)F)c1ccc(Cl)c(Cl)c1` (stereo not shown) [2-(3-Chloro-2-fluoro-5-trifluoromethylbenzyl)-4-(3,4-dichlorophenyl)-1,1,1-trifluoro-4-methylpentan-2-ol], no more than 100 nM; for `COc1ccc(F)cc1C(C)(C)CC(O)(Cc1ccc(-c2ccccc2)cc1)C(F)(F)F` (stereo not shown) [2-Biphenyl-4-ylmethyl-1,1,1-trifluoro-4-(5-fluoro-2-methoxyphenyl)-4-methylpentan-2-ol], no more than 100 nM.
`CC(C)(CC(O)(Cc1ccc(O)cc1)C(F)(F)F)c1cc(F)ccc1O` (stereo not shown) [4-Fluoro-2-[4,4,4-trifluoro-3-hydroxy-3-(4-hydroxybenzyl)-1,1-dimethylbutyl]phenol] came in with an IC50 of no more than 100 nM.
